Laboratory results from US20150025120A1, “PYRAZOLE-ALCOHOL COMPOUNDS AND PHARMACEUTICAL USE THEREOF” (JAPAN TOBACCO INC., priority 2013, published 2015).

Biological target: T1, human PDHK1 (hPDHK1) (Homo sapiens, UniProt Q15118)
T1 construct: made in house; host or cells: Escherichia coli BL21(DE3), pET17b
Assay: Inhibitory action of PDHK1 activity in vitro (residual PDH activity after kinase reaction)
Format: biochemical
Description: The inhibitory action of PDHK activity was assessed indirectly by measuring the residual PDH activity after kinase reaction in the presence of a test compound.
In the case of human PDHK1 (hPDHK1, Genbank Accession No. L42450.1), a 1.3 kbp fragment encoding this protein was isolated from human liver cDNA by polymerase chain reaction (PCR). Modified hPDHK1 cDNA wherein FLAG-Tag sequence was added to the N terminus was prepared by PCR and cloned into a vector (pET17b-Novagen). The recombinant construct was transformed into Escherichia coli (DH5α-TOYOBO). The recombinant clones were identified, and plasmid DNA was isolated and subjected to the DNA sequence analysis. One clone which had the expected nucleic acid sequence was selected for expression work. […]
Then, 10 μL of substrates (5 mmol/L sodium pyruvate, 5 mmol/L Coenzyme A, 12 mmol/L NAD, 5 mmol/L thiamin pyrophosphate, diluted with buffer) were added. The mixture was incubated at room temperature for 90 min, and the residual PDH activity was measured.
The absorbance at 340 nm before and after PDH reaction was measured using a microplate reader to detect NADH produced by the PDH reaction. The hPDHK1 inhibition rate (%) of the test compound was calculated from the formula [{(PDH activity of the test compound−PDH activity of control)/PDH activity of blank−PDH activity of control)}× 100].

T1 sequence (Q15118 29-436): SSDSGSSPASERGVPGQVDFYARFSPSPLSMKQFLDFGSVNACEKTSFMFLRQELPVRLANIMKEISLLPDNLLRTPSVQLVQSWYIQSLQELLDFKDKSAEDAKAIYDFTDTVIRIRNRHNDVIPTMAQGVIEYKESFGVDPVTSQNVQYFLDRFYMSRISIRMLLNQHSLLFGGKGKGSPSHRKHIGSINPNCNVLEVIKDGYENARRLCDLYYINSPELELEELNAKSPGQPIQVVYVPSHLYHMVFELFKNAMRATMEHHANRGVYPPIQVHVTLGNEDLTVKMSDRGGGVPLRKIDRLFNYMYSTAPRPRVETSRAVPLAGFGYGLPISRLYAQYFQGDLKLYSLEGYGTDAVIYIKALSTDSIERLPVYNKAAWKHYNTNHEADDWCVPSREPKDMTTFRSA

| IC50 | Compound |
| --- | --- |
| 28 nM | C[C@H](O)COc1cc(-c2cnn(CC(C)(C)O)c2)c2c(c1)[C@@](O)(C(F)(F)F)c1ccccc1-2 [compound (1), (9R)-4-[1-(2-hydroxy-2-methylpropyl)-1H-pyrazol-4-yl]-2-((2S)-2-hydroxypropoxy)-9-(trifluoromethyl)-9H-fluoren-9-ol] |
| 34 nM | CC(C)(O)COc1cc(-c2cnn(CC(C)(C)O)c2)c2c(c1)[C@@](O)(C(F)(F)F)c1ccccc1-2 [compound (2), (9R)-2-(2-hydroxy-2-methylpropoxy)-4-[1-(2-hydroxy-2-methylpropyl)-1H-pyrazol-4-yl]-9-(trifluoromethyl)-9H-fluoren-9-ol] |
